Experiment [1] addresses T1, human Smo (amino acids 181-787) (Homo sapiens, UniProt Q99835).
T1 construct: expressed in transfected cells; membrane preparation
Nature of the experiment: Smo radioligand competition binding assay (displacement of 3H-PF-03451358 from HEK293 membranes). The following applies: for inhibition at 0.05 µM: 0.05 μM test compound, displacement of 3H-PF-03451358, read-out: SMO % inh. @ 0.05 μM; for IC50: radioligand competition binding. In short, it runs like this: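 Displacement of 3 nM tritiated PF-03451358 measured by filtration and scintillation counting after 2 h at room temperature, using 40 μg/well HEK293 membranes bearing cell-surface Smo 181-787, pH 7.5 buffer. Specific binding defined against 30 μM unlabelled ligand; IC50 via variable-slope sigmoidal fit.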
Background: Displacement assays read how much labelled ligand stays bound in the presence of the test substance.

In the next experiment the test system is Gli-Luc/MEF cells (Smo). Nature of the experiment: Gli-Luc/MEF assay (Shh-stimulated luciferase reporter under the Gli response element). The experiment is classed as cell-based, mouse. In short, it runs like this:
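IC50 derived from luminescence (Bright-Glo) after 48 h at 37° C, 5% CO2, with compound at […] (3-fold dilutions) added together with mouse Shh at 2 μg/mL final. Cells: MEFs from Gli-Luc transgenic mice.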

SMILES strings stand for the structures.

In general, IC50 refers to the concentration that gives 50% inhibition.

T1 sequence (Q99835 181-787): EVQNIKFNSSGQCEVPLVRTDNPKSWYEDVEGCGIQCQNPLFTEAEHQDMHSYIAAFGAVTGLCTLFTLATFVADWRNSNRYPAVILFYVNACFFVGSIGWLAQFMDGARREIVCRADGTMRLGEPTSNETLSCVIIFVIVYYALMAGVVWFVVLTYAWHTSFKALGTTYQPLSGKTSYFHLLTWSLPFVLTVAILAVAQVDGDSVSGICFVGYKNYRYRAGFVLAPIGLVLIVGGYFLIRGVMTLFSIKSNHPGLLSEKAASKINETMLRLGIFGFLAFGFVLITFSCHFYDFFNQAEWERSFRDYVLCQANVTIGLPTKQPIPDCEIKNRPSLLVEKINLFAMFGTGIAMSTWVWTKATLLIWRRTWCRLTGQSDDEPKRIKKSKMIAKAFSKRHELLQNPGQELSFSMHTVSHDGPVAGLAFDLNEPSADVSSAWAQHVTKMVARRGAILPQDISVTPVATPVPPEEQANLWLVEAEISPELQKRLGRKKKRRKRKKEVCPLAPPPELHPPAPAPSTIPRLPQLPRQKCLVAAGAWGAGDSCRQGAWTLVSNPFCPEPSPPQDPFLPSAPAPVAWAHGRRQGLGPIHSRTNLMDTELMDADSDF

On to `CNC(=O)NC1CN(c2cc(-c3nc4ccccc4n3C)c(Cl)cn2)C1` [Example A-180, 1-{1-[5-chloro-4-(1-methyl-1H-benzimidazol-2-yl)pyridin-2-yl]azetidin-3-yl}-3-methylurea], for which, in experiment [1], the inhibition at 0.05 µM came out at 89% and the IC50 stood at 60 nM. Further, in the experiment on Gli-Luc/MEF cells (Smo) (Mus musculus, MEF, 48 h), the midpoint of inhibition, the IC50, lay at 43 nM.

With `CN(C1CCN(c2cc(-c3nc4ccccc4n3C)c(Cl)cn2)C1)S(C)(=O)=O` (centres unmarked) [Example A-181, N-{1-[5-chloro-4-(1-methyl-1H-benzimidazol-2-yl)pyridin-2-yl]pyrrolidin-3-yl}-N-methylmethanesulfonamide], the inhibition at 0.05 µM in experiment [1] is 98%. Further, the 50% inhibitory concentration (IC50) in experiment [1] is 11 nM; with Gli-Luc/MEF cells (Smo) (Mus musculus, MEF, 48 h) it was 9 nM.

`CNC(=O)N(C)C1CCN(c2cc(-c3nc4ccccc4n3C)c(Cl)cn2)C1` (centres unmarked) [Example A-182, 1-{1-[5-chloro-4-(1-methyl-1H-benzimidazol-2-yl)pyridin-2-yl]pyrrolidin-3-yl}-1,3-dimethylurea]: in experiment [1], the inhibition at 0.05 µM came to 85% and the concentration for half-maximal inhibition (IC50) stood at 50 nM. The same compound had a 50% inhibitory concentration (IC50) in the experiment with Gli-Luc/MEF cells (Smo) (Mus musculus, MEF, 48 h) of 31 nM.

For the compound `CC(=O)N(C)C1CCN(c2cc(-c3nc4ccccc4n3C)c(Cl)cn2)C1` (centres unmarked) [Example A-183, N-{1-[5-chloro-4-(1-methyl-1H-benzimidazol-2-yl)pyridin-2-yl]pyrrolidin-3-yl}-N-methylacetamide], in experiment [1], the inhibition at 0.05 µM was 89% and the IC50 was 81 nM. In the experiment with Gli-Luc/MEF cells (Smo) (Mus musculus, MEF, 48 h), this compound gave an IC50 of 65 nM.

For `Cn1c(-c2cc(N3C[C@H]4CC[C@@H](C3)N4)ncc2Cl)nc2ccccc21` [Example A-185, 2-{5-chloro-2-[(1R,5S)-3,8-diazabicyclo[3.2.1]oct-3-yl]pyridin-4-yl}-1-methyl-1H-benzimidazole], the inhibition at 0.05 µM in experiment [1] stood at 91%. For the same compound, the IC50 in experiment [1] was determined as 20 nM; with Gli-Luc/MEF cells (Smo) (Mus musculus, MEF, 48 h), 14 nM.

Take `CN(CC(N)=O)c1cc(-c2nc3ccccc3n2C)c(Cl)cn1` [Example A-186, N~2~-[5-chloro-4-(1-methyl-1H-benzimidazol-2-yl)pyridin-2-yl]-N~2~-methylglycinamide]: in experiment [1], the inhibition at 0.05 µM was 78% and the half-maximal inhibitory concentration (IC50) was 97 nM. The compound further gave an IC50 in the experiment on Gli-Luc/MEF cells (Smo) (Mus musculus, MEF, 48 h) of 65 nM.

Regarding `CC(=O)N1[C@@H]2CC[C@H]1CN(c1cc(-c3nc4ccccc4n3C)c(Cl)cn1)C2` [Example A-187, 2-{2-[(1R,5S)-8-acetyl-3,8-diazabicyclo[3.2.1]oct-3-yl]-5-chloropyridin-4-yl}-1-methyl-1H-benzimidazole], the inhibition at 0.05 µM in experiment [1] was determined as 90%. In addition, the half-maximal inhibitory concentration (IC50) in experiment [1] was 27 nM; in the experiment on Gli-Luc/MEF cells (Smo) (Mus musculus, MEF, 48 h) it was 10 nM.

On to `CC(C)NC(=O)NC1CN(c2cc(-c3nc4ccccc4n3C)c(Cl)cn2)C1` [Example A-188, 1-{1-[5-chloro-4-(1-methyl-1H-benzimidazol-2-yl)pyridin-2-yl]azetidin-3-yl}-3-isopropylurea], for which the inhibition at 0.05 µM in experiment [1] worked out at 97%. Besides, the IC50 in experiment [1] stood at 15 nM; with Gli-Luc/MEF cells (Smo) (Mus musculus, MEF, 48 h), 10 nM.

`Cn1c(-c2cc(N3CCN(c4ccc(C#N)cn4)CC3)ncc2Cl)nc2ccccc21` [Example A-189, 6-{4-[5-chloro-4-(1-methyl-1H-benzimidazol-2-yl)pyridin-2-yl]piperazin-1-yl}nicotinonitrile]: the inhibition at 0.05 µM in experiment [1] worked out at 99%. Besides, the IC50 in experiment [1] amounted to 11 nM; in the experiment with Gli-Luc/MEF cells (Smo) (Mus musculus, MEF, 48 h) it was 0.79 nM.

With `Cn1c(-c2cc(N3CCN(C(=O)CC(C)(C)O)CC3)ncc2Cl)nc2ccccc21` [Example A-190, 4-{4-[5-chloro-4-(1-methyl-1H-benzimidazol-2-yl)pyridin-2-yl]piperazin-1-yl}-2-methyl-4-oxobutan-2-ol], in experiment [1], the inhibition at 0.05 µM stood at 98% and the IC50 turned out to be 7 nM. Further, the half-maximal inhibitory concentration (IC50) with Gli-Luc/MEF cells (Smo) (Mus musculus, MEF, 48 h) is 1.4 nM.

In the case of `Cn1c(-c2cc(N3CCN(C(=O)C4CCOC4)CC3)ncc2Cl)nc2ccccc21` (centres unmarked) [Example A-191, 2-{5-chloro-2-[4-(tetrahydrofuran-3-ylcarbonyl)piperazin-1-yl]pyridin-4-yl}-1-methyl-1H-benzimidazole], the inhibition at 0.05 µM in experiment [1] worked out at 101%. Also, the IC50 is 6 nM in experiment [1] and 1.7 nM in the experiment with Gli-Luc/MEF cells (Smo) (Mus musculus, MEF, 48 h).

Regarding `CN(C)CC(=O)N1CCN(c2cc(-c3nc4ccccc4n3C)c(Cl)cn2)CC1` [Example A-192, 2-{4-[5-chloro-4-(1-methyl-1H-benzimidazol-2-yl)pyridin-2-yl]piperazin-1-yl}-N,N-dimethyl-2-oxoethanamine], in experiment [1], the inhibition at 0.05 µM amounted to 87% and the IC50 worked out at 15 nM. Further, the midpoint of inhibition in the experiment with Gli-Luc/MEF cells (Smo) (Mus musculus, MEF, 48 h), the IC50, lay at 2.4 nM.

On to `Cn1c(-c2cc(N3[C@@H]4CC[C@H]3C[C@@H](NS(C)(=O)=O)C4)ncc2Cl)nc2ccccc21` [Example A-193, N-{(3-endo)-8-[5-chloro-4-(1-methyl-1H-benzimidazol-2-yl)pyridin-2-yl]-8-azabicyclo[3.2.1]oct-3-yl}methanesulfonamide], for which the inhibition at 0.05 µM in experiment [1] worked out at 103%. Moreover, the IC50 was determined as 13 nM in experiment [1] and 2.5 nM in the experiment on Gli-Luc/MEF cells (Smo) (Mus musculus, MEF, 48 h).

With `Cn1c(-c2cc(N3[C@@H]4CC[C@H]3CNC4)ncc2Cl)nc2ccccc21` [Example A-194, 2-{5-chloro-2-[(1R,5S)-3,8-diazabicyclo[3.2.1]oct-8-yl]pyridin-4-yl}-1-methyl-1H-benzimidazole], in experiment [1], the inhibition at 0.05 µM was found to be 111% and the IC50 was 13 nM. Further, the midpoint of inhibition with Gli-Luc/MEF cells (Smo) (Mus musculus, MEF, 48 h), the IC50, lay at 3.7 nM.

In the case of `COCCS(=O)(=O)NC1CN(c2cc(-c3nc4ccccc4n3C)c(Cl)cn2)C1` [Example A-195, N-{1-[5-chloro-4-(1-methyl-1H-benzimidazol-2-yl)pyridin-2-yl]azetidin-3-yl}-2-methoxyethanesulfonamide], in experiment [1], the inhibition at 0.05 µM was 101% and the IC50 came out at 9.5 nM. In the experiment with Gli-Luc/MEF cells (Smo) (Mus musculus, MEF, 48 h), this compound displayed an IC50 of 4.9 nM.

Turning to `C[C@H]1CN(S(C)(=O)=O)CCN1c1cc(-c2nc3ccccc3n2C)c(Cl)cn1` [Example A-196, 2-{5-chloro-2-[(2S)-2-methyl-4-(methylsulfonyl)piperazin-1-yl]pyridin-4-yl}-1-methyl-1H-benzimidazole], in experiment [1], the inhibition at 0.05 µM was determined as 99% and the IC50 was 8 nM. The same compound came in with a half-maximal inhibitory concentration (IC50) in the experiment with Gli-Luc/MEF cells (Smo) (Mus musculus, MEF, 48 h) of 6.7 nM.

In the case of `CN1CC2(CCN(c3cc(-c4nc5ccccc5n4C)c(Cl)cn3)CC2)OC1=O` [Example A-197, 8-[5-chloro-4-(1-methyl-1H-benzimidazol-2-yl)pyridin-2-yl]-3-methyl-1-oxa-3,8-diazaspiro[4.5]decan-2-one], the inhibition at 0.05 µM in experiment [1] turned out to be 96%. The IC50 in experiment [1] was found to be 10 nM; in the experiment with Gli-Luc/MEF cells (Smo) (Mus musculus, MEF, 48 h) it was 6.9 nM.

Regarding `Cn1c(-c2cc(N3CCC4(CC3)CNC(=O)O4)ncc2Cl)nc2ccccc21` [Example A-198, 8-[5-chloro-4-(1-methyl-1H-benzimidazol-2-yl)pyridin-2-yl]-1-oxa-3,8-diazaspiro[4.5]decan-2-one], in experiment [1], the inhibition at 0.05 µM was found to be 87%. Moreover, the concentration for half-maximal inhibition (IC50) in experiment [1] is 9 nM; in the experiment on Gli-Luc/MEF cells (Smo) (Mus musculus, MEF, 48 h), 7 nM.

With `CC(=O)N1CCN(c2cc(-c3nc4ccccc4n3C)c(Cl)cn2)[C@@H](C)C1` [Example A-199, 2-{2-[(2S)-4-acetyl-2-methylpiperazin-1-yl]-5-chloropyridin-4-yl}-1-methyl-1H-benzimidazole], in experiment [1], the inhibition at 0.05 µM was determined as 100% and the half-inhibitory concentration (IC50) was found to be 9 nM. Further, in the experiment on Gli-Luc/MEF cells (Smo) (Mus musculus, MEF, 48 h), inhibition was half-maximal at 7.2 nM (IC50).

As to `Cn1c(-c2cc(N3CC(NS(=O)(=O)CCO)C3)ncc2Cl)nc2ccccc21` [Example A-200, N-{1-[5-chloro-4-(1-methyl-1H-benzimidazol-2-yl)pyridin-2-yl]azetidin-3-yl}-2-hydroxyethanesulfonamide], in experiment [1], the inhibition at 0.05 µM was 98% and the IC50 was 15 nM. Moreover, in the experiment with Gli-Luc/MEF cells (Smo) (Mus musculus, MEF, 48 h), the concentration for half-maximal inhibition (IC50) is 7.6 nM.

Consider `COCC(=O)N1CCN(c2cc(-c3nc4ccccc4n3C)c(Cl)cn2)CC1` [Example A-201, 2-{5-chloro-2-[4-(methoxyacetyl)piperazin-1-yl]pyridin-4-yl}-1-methyl-1H-benzimidazole], for which, in experiment [1], the inhibition at 0.05 µM is 96% and the IC50 turned out to be 14 nM. The midpoint of inhibition in the experiment on Gli-Luc/MEF cells (Smo) (Mus musculus, MEF, 48 h), the IC50, lay at 8.8 nM.

Regarding `Cn1c(-c2cc(N3CCN(C(=O)CO)CC3)ncc2Cl)nc2ccccc21` [Example A-202, 2-{4-[5-chloro-4-(1-methyl-1H-benzimidazol-2-yl)pyridin-2-yl]piperazin-1-yl}-2-oxoethanol], in experiment [1], the inhibition at 0.05 µM came to 97% and the half-maximal inhibitory concentration (IC50) turned out to be 11 nM. Moreover, the IC50 in the experiment with Gli-Luc/MEF cells (Smo) (Mus musculus, MEF, 48 h) came to 9 nM.

In the case of `Cn1c(-c2cc(N3CCC(OC(N)=O)CC3)ncc2Cl)nc2ccccc21` [Example A-203, 1-[5-chloro-4-(1-methyl-1H-benzimidazol-2-yl)pyridin-2-yl]piperidin-4-yl carbamate], in experiment [1], the inhibition at 0.05 µM was 94%. Besides, the IC50 in experiment [1] turned out to be 11 nM; with Gli-Luc/MEF cells (Smo) (Mus musculus, MEF, 48 h), 12.5 nM.

For the compound `Cn1c(-c2cc(N3CCC4(CC3)CC(O)CCO4)ncc2Cl)nc2ccccc21` (centres unmarked) [Example A-204, 9-[5-chloro-4-(1-methyl-1H-benzimidazol-2-yl)pyridin-2-yl]-1-oxa-9-azaspiro[5.5]undecan-4-ol], in experiment [1], the inhibition at 0.05 µM worked out at 96% and the concentration for half-maximal inhibition (IC50) came to 19 nM. This compound returned an IC50 with Gli-Luc/MEF cells (Smo) (Mus musculus, MEF, 48 h) of 12.6 nM.

On to `Cn1c(-c2cc(N3CC(NC(=O)C4CCOCC4)C3)ncc2Cl)nc2ccccc21` [Example A-205, N-{1-[5-chloro-4-(1-methyl-1H-benzimidazol-2-yl)pyridin-2-yl]azetidin-3-yl}tetrahydro-2H-pyran-4-carboxamide], for which the inhibition at 0.05 µM in experiment [1] amounted to 93%. In the experiment with Gli-Luc/MEF cells (Smo) (Mus musculus, MEF, 48 h), this compound yielded an IC50 of 14.2 nM.

Consider `Cn1c(-c2cc(N3CCN(CCS(C)(=O)=O)CC3)ncc2Cl)nc2ccccc21` [Example A-206, 2-(5-chloro-2-{4-[2-(methylsulfonyl)ethyl]piperazin-1-yl}pyridin-4-yl)-1-methyl-1H-benzimidazole], for which, in experiment [1], the inhibition at 0.05 µM turned out to be 99%. Further, the concentration for half-maximal inhibition (IC50) turned out to be 17 nM in experiment [1] and 17.1 nM in the experiment on Gli-Luc/MEF cells (Smo) (48 hours).
